Source: patent US20260007639A1, “COMPOUNDS FOR THE TREATMENT OF NEUROMUSCULAR DISORDERS” (NMD PHARMA A/S, priority 2017, published 2026)
Where two headings read alike, the source gives them in different places.

Legend:
[1] = tested on: rat soleus muscles; experiment: Recovery of force in isolated rat soleus nerve-muscle preparations after 115 nM tubocurarine, 50 μM compound (Table 8); settings: 40 mins exposure
Description: Force traces from a representative muscle stimulated to contract in 1) control condition before addition of neuromuscular blocking agent, 2) the force response to stimulation after 90 minutes incubation with Tubocurarine. […] The traces presented in FIG. 12A (1, 2, 3), correspond to the dotted lines in FIG. 12B, respectively.
Recovery of force is quantified as the percentage of the force prior to tubocurarine that is recovered by the compound.
The current invention relates to compounds that inhibit CIC-1 ion channels and increase muscle excitability and thereby improve muscle function in clinical conditions where muscle activation is failing. Such conditions result in loss of contractile function of skeletal muscle, weakness and excessive fatigue. In this series of experiments the compounds were tested for their ability to restore contractile function of isolated rat muscle when the neuromuscular transmission had been compromised akin to neuromuscular disorders.
Experimentally, soleus muscles from 4-5 wk old rats were isolated with the motor nerve remaining attached. The nerve-muscle preparations were mounted in experimental setups that enabled electrical stimulation of the motor nerve. Stimulation of the motor nerve led to activation of the muscle fibres and ensuing force production that was recorded.
After mounting the nerve-muscle preparation in the experimental setup, the contractile function of the muscle was initially assessed under the control conditions (FIG. 2A). […] The experimental condition mimics the failing neuromuscular transmission in a range of neuromuscular disorders. After addition of tubocurarine the contractile force declined over the next 90 mins to 10-50% of the control force. 50 μM of the test compound was then added and the contractile force recovered despite the continued presence of tubocurarine. To quantify the ability of the compound to restore force the percentage of the initial force that was restored was determined after 40 mins of compound exposure (FIG. 2B) and the point increase is reported in Table 8.

[2] = molecular target: T1, CIC-1 channels (Rattus norvegicus, UniProt P35524); experiment: Electrophysiological measurement of compound inhibition of CIC-1 (Gm) in rat soleus muscle fibres: EC50 (Table 7)
T1 sequence (P35524 1-994): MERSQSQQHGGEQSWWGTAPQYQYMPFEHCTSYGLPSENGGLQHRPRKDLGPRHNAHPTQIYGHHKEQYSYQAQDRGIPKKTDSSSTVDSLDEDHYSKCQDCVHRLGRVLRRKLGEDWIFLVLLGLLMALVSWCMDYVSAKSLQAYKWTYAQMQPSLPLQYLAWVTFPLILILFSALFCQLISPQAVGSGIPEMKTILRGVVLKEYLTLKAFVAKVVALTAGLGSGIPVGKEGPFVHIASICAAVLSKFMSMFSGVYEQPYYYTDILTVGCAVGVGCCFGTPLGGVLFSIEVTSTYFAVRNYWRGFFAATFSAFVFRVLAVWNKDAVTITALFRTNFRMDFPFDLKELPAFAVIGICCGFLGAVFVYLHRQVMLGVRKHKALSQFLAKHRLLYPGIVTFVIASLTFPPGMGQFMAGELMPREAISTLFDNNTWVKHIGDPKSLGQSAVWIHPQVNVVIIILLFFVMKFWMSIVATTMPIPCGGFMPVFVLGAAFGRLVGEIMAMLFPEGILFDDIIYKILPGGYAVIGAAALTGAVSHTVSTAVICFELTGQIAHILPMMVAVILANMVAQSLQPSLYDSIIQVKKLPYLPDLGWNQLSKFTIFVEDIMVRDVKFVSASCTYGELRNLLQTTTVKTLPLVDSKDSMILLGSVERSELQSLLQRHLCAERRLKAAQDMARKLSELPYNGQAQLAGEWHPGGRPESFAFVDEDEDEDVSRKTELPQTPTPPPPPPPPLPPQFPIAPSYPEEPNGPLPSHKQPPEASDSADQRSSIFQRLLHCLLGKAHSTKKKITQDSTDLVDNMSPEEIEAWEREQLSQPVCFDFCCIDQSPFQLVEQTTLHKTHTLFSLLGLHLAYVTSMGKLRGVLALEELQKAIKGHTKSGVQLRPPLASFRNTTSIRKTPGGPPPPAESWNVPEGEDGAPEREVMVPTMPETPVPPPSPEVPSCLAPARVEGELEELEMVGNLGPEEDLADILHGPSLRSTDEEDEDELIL

[3] = tested on: rat soleus muscles; experiment: Recovery of nerve-stimulated force in isolated rat soleus muscles exposed to sub-maximal tubocurarine (Table 1); settings: for 500 μM % change after addition (AUC force): 500 μM compound
Description: The motor nerve was stimulated every 10 min for 2 s with 30 Hz with field stimulation using short duration pulses. […] Traces are shown before addition tubocurarine, after 40 min with tubocurarine, and after 110 min tubocurarine. […] This recovery of force was used in Table 1.
Experiments were performed using rat soleus muscles from either young (4-wk-old) or adult Wistar rats (12-14-week-old). Animal handling, killing and isolation of muscle is described elsewhere All experiments were performed using normal Krebs-Ringer bicarbonate solution (NKR). In solutions with elevated Mg^2+, MgCl^2 was added to NKR-solution causing minor increases in osmolarity and ionic strength. In solutions with elevated K^+, 4 mM NaCl was replaced by 4 mM KCl in the NKR.
In all contraction experiments, isometric force production was determined and force produced during contractions was quantified by measuring the integral of the force response (AUC). Stimulation and force recordings have been described elsewhere. […] In these latter experiments, extracellular recordings of action potentials (M-waves) could be measured without temporal overlap with stimulation artefacts.
The aim was to find compounds that by inhibition of CIC-1 channels can recover nerve-stimulated force under conditions of fatigue including conditions where fatigue is caused by compromised neuromuscular transmission. Neuromuscular transmission dysfunction can develop because of both pre- and/or post-synaptic complications in connection with a disorder or as part of neuromuscular blockade during/after surgery. In the initial series of drug testing, experiments were performed with isolated muscles in the presence of sub-maximal ACh receptor antagonist tubocurarine. Since the inclusion of tubocurarine caused a partial loss of neuromuscular transmission this experiment mimics the conditions in myasthenia gravis and neuromuscular blockade. To mimic conditions with pre-synaptic complication (Lambert Eaton syndrome, motor neuron disorder, polyneuropathy) the intact nerve-muscle preparations were incubated at elevated extracellular Mg^2+, which is known to suppress release of ACh from nerve terminals of motor neurons. […]
For comparison with the muscle only exposed to tubocurarine (grey trace), the two traces have been overlaid. […] For comparison, muscles only exposed to tubocurarine have been included. The dotted line indicates the recovery of force with C8 when compared to the force production before its addition. This value was used in Table 1 for evaluation of the efficacy of the different compounds in recovering force.

[4] = 150 μM compound, % change in AUC compared to AUC before addition, after 40 min in tubocurarine
[5] = % change in AUC compared to AUC before addition, after 40 min in tubocurarine

Structure (SMILES)	Point increase (%) of initial force that was restored [1]	EC50 [2]	further results
CC[C@H](Oc1ccc(Br)cc1-c1csnn1)C(=O)O [Compound A-67, (2S)-2-[4-bromo-2-(1,2,3-thiadiazol-4-yl)phenoxy]butanoic acid]	13%		
C[C@H](Oc1ccc(Br)cc1-c1cc(C2CC2)on1)C(=O)O [Compound A-11, (2S)-2-[4-bromo-2-(5-cyclopropyl-1,2-oxazol-3-yl)phenoxy]propanoic acid]	19%	10.3 µM	
CC[C@H](Oc1ccc(Cl)cc1-c1ccon1)C(=O)O [Compound A-35, (2S)-2-[4-chloro-2-(1,2-oxazol-3-yl)phenoxy]butanoic acid]	28%	10.4 µM	
O=C(O)COc1ccc(Cl)cc1-c1ccno1 [Compound A-78, 2-[4-chloro-2-(1,2-oxazol-5-yl)phenoxy]acetic acid]	17%		
O=C(O)[C@H](CC1CCC1)Oc1ccc(Br)cc1-c1ccon1 [Compound A-71, (2S)-2-[4-bromo-2-(1,2-oxazol-3-yl)phenoxy]-3-cyclobutylpropanoic acid]	15%	6.5 µM	
O=C(O)[C@H](CF)Oc1ccc(Cl)cc1-c1ccon1 [Compound A-39, (2R)-2-[4-chloro-2-(1,2-oxazol-3-yl)phenoxy]-3-fluoropropanoic acid]	36%	5.2 µM	
O=C(O)COc1ccc(Br)cc1-c1ccno1 [Compound A-69, 2-[4-bromo-2-(1,2-oxazol-5-yl)phenoxy]acetic acid]	15%	7.8 µM	
CC(Oc1ccc(Cl)cc1)C(=O)Oc1ccc(Cl)cc1 (stereo not drawn) [Compound C11, 4-chlorophenyl 2-(4-chlorophenoxy)propanoate]			50 μM % change after addition (AUC force) [3]: 46%; 150 μM % change after addition (AUC force) [3]: 54%
C[C@H](OCc1ccccc1)C(=O)O [Compound C5, (2S)-2-(benzyloxy)propanoic acid]			150 μM % change after addition (AUC force) [3, 4]: 1%; 500 μM % change after addition (AUC force) [3, 5]: 42%
CCC(Oc1ccc(Cl)cc1)C(=O)O (stereo not drawn) [Compound C7, 2-(4-chlorophenoxy)butanoic acid]			150 μM % change after addition (AUC force) [3, 4]: 0%; 500 μM % change after addition (AUC force) [3, 5]: 40%
CC(C(=O)O)S(=O)(=O)c1ccc(F)cc1 (stereo not drawn) [Compound C6, 2-(4-fluorobenzenesulfonyl)propanoic acid]			150 μM % change after addition (AUC force) [3, 4]: −8%; 500 μM % change after addition (AUC force) [3, 5]: 9%
Cl.NCC(Oc1ccc(F)cc1)C(=O)O (stereo not drawn) [Compound C9, 3-amino-2-(4-fluorophenoxy)propanoic acid hydrochloride]			150 μM % change after addition (AUC force) [3, 4]: −13%; 500 μM % change after addition (AUC force) [3, 5]: 5%
CC[C@H](Oc1ccc(Br)cc1-c1ccno1)C(=O)O [Compound A-1, (2S)-2-[4-bromo-2-(1,2-oxazol-5-yl)phenoxy]butanoic acid]	18%	12.4 µM	
O=C(O)[C@H](CF)Oc1ccc(Br)cc1-c1ccno1 [Compound A-21, (2R)-2-[4-bromo-2-(1,2-oxazol-5-yl)phenoxy]-3-fluoropropanoic acid]	13%		
COCC(C)C(Oc1ccc(Br)cc1)C(=O)O (stereo not drawn) [Compound C21, 2-(4-bromophenoxy)-4-methoxy-3-methylbutanoic acid]			150 μM % change after addition (AUC force) [3, 4]: 7%; 500 μM % change after addition (AUC force) [3, 5]: 36%
O=C(O)[C@H](CF)Oc1cc(F)c(Cl)cc1-c1ccon1 [Compound A-47, (2R)-2-[4-chloro-5-fluoro-2-(1,2-oxazol-3-yl)phenoxy]-3-fluoropropanoic acid]	19%	7.7 µM	
O=C(O)COc1ccc(Br)cc1-c1csnn1 [Compound A-79, 2-[4-bromo-2-(1,2,3-thiadiazol-4-yl)phenoxy]acetic acid]	17%		
C[C@H](Oc1ccc(Cl)cc1-c1csnn1)C(=O)O [Compound A-62, (2S)-2-[4-chloro-2-(1,2,3-thiadiazol-4-yl)phenoxy]propanoic acid]	17%	9.4 µM	
CC(C)[C@H](Oc1ccc(Br)cc1-c1ccon1)C(=O)O [Compound A-3, (2S)-2-[4-bromo-2-(1,2-oxazol-3-yl)phenoxy]-3-methylbutanoic acid]		11.6 µM	
CC[C@H](Oc1ccc(Cl)cc1-c1ccno1)C(=O)O [Compound A-49, (2S)-2-[4-chloro-2-(1,2-oxazol-5-yl)phenoxy]butanoic acid]	16%		
C[C@H](Oc1ccc(Cl)cc1-c1cocn1)C(=O)O [Compound A-46, (2S)-2-[4-chloro-2-(1,3-oxazol-4-yl)phenoxy]propanoic acid]	11%		
O=C(O)[C@H](CC1CC1)Oc1ccc(Br)cc1-c1csnn1 [Compound A-75, (2S)-2-[4-bromo-2-(1,2,3-thiadiazol-4-yl)phenoxy]-3-cyclopropylpropanoic acid]	10%		
O=C(O)[C@H](CF)Oc1ccc(Br)cc1-c1csnn1 [Compound A-66, (2R)-2-[4-bromo-2-(1,2,3-thiadiazol-4-yl)phenoxy]-3-fluoropropanoic acid]	13%		
O=C(O)[C@H](CC1CC1)Oc1ccc(Cl)cc1-c1ccno1 [Compound A-52, (2S)-2-[4-chloro-2-(1,2-oxazol-5-yl)phenoxy]-3-cyclopropylpropanoic acid]	11%		
C[C@@H](Oc1ccc(Br)cc1-c1ccno1)C(=O)O [(2R)-A-22]	−3%	> 80 µM	
O=C(O)[C@H](CF)Oc1cc(F)c(Br)cc1-c1ccon1 [Compound A-63, (2R)-2-[4-bromo-5-fluoro-2-(1,2-oxazol-3-yl)phenoxy]-3-fluoropropanoic acid]	23%	10.8 µM	
